Measurements published in ChEMBL document CHEMBL2069300 (J Med Chem, 2012).
In brackets after ≈: the same amount, converted by molar mass.

Assays:
[1] = Aqueous solubility of the compound in phosphate buffered saline at pH 7.4; type: physicochemical; settings: buffer
[2] = Stability of the compound in water at neutral pH after 24 hrs; type: physicochemical; settings: buffer

| SMILES | solubility [1] [µM] | Stability [2] |
| --- | --- | --- |
| COc1ccc(OC)c(S(=O)(=O)ON2C(=O)c3ccccc3C2=O)c1 | 453.9 (≈ 165 µg/mL) |  |
| Nc1nc2ccc(S(=O)(=O)N3CCCCC3)cc2s1 | 338.8 (≈ 101 µg/mL) |  |
| CCc1ccc(S(=O)(=O)ON2C(=O)c3ccccc3C2=O)cc1 | 462 (≈ 153 µg/mL) |  |
| COC(=O)c1ccc2c(c1)C(C)(C)C(/C=C/c1ccc(O)cc1)=[N+]2C | 218.7 |  |
| Cc1cccc(N2COc3ccc4ccccc4c3C2)c1 | 377.4 (≈ 104 µg/mL) |  |
| CCOc1ccc(/C=C/C2=[N+](C)c3ccc(C(=O)OC)cc3C2(C)C)cc1 | 0.7 |  |
| COC(=O)c1ccc(/C=C/C2=[N+](C)c3ccc(OC)cc3C2(C)C)cc1 | 0.2 |  |
| CCCS(=O)(=O)c1oc(-c2cccs2)nc1S(=O)(=O)c1ccc(F)cc1 | 21.9 (≈ 9.1 µg/mL) |  |
| CCS(=O)(=O)c1oc(-c2cccs2)nc1S(=O)(=O)c1ccccc1 | 49.9 (≈ 19.1 µg/mL) |  |
| CC(C)CS(=O)(=O)c1oc(-c2cccs2)nc1S(=O)(=O)c1ccc(F)cc1 | 17.6 (≈ 7.56 µg/mL) |  |
| CC(C)S(=O)(=O)c1oc(-c2cccs2)nc1S(=O)(=O)c1ccccc1 | 34.2 (≈ 13.6 µg/mL) |  |
| Cc1c(C=O)c(C(=O)O)c(C)n1Cc1ccc(Cl)cc1 | 576 (≈ 168 µg/mL) |  |
| O=Cc1nc2ccccc2n1Cc1ccc2ccccc2c1 | 42.1 (≈ 12.1 µg/mL) |  |
| O=Cc1nc2ccccc2n1Cc1ccc(Cl)cc1Cl | 15.3 (≈ 4.67 µg/mL) |  |
| COCC(=O)Oc1c(Sc2ccc(Cl)cc2)c(C)nn1-c1ccccc1 | 493 (≈ 192 µg/mL) |  |
| CCCCNC(=O)Cn1sc2nc(C)cc(C)c2c1=O | 487 (≈ 143 µg/mL) |  |
| COc1ccc(/C=C/C2=[N+](C)c3ccc(OC)cc3C2(C)C)cc1 | 273.3 |  |
| COC(=O)c1ccc2c(c1)C(C)(C)C(/C=C/c1ccc(OC)cc1)=[N+]2C | 0.1 |  |
| Cc1[nH]c2ccccc2c1C(Nc1ccccc1)c1ccccc1 (centres undefined) |  | Stable |

| SMILES | solubility [1] [µM] | Stability [2] |
| --- | --- | --- |
| Cc1[nH]c2ccccc2c1C(Nc1ccccc1)c1ccc(Cl)cc1 (centres undefined) |  | Stable |
| COc1ccc(C(Nc2ccccc2)c2c(C)[nH]c3ccccc23)cc1 (centres undefined) |  | Stable |
| Cc1ccc(C(Nc2ccccc2)c2c(C)[nH]c3ccccc23)cc1 (centres undefined) |  | Stable |
| Cc1[nH]c2ccccc2c1C(Nc1ccccc1)c1ccc(N(C)C)cc1 (centres undefined) |  | Stable |
| Cc1[nH]c2ccccc2c1C(Nc1ccccc1)c1ccc([N+](=O)[O-])cc1 (centres undefined) |  | Stable |
| Cc1[nH]c2ccccc2c1C(C)Nc1ccccc1 (centres undefined) |  | Stable |
| Cc1[nH]c2ccccc2c1C(Nc1ccccc1)c1ccc2ccccc2c1 (centres undefined) |  | Stable |
| Cc1[nH]c2ccccc2c1C(Nc1ccccc1)c1ccc(CCCO)cc1 (centres undefined) | 503.4 (≈ 187 µg/mL) | Stable |
| Cc1[nH]c2ccccc2c1C(Nc1ccccc1)c1ccccc1Cl (centres undefined) |  | Stable |
| Cc1[nH]c2ccccc2c1C(Nc1ccc(Cl)cc1)c1ccccc1Cl (centres undefined) |  | Stable |
| COc1ccc(NC(c2ccccc2Cl)c2c(C)[nH]c3ccccc23)cc1 (centres undefined) |  | Stable |
| Cc1ccc(NC(c2ccccc2Cl)c2c(C)[nH]c3ccccc23)cc1 (centres undefined) |  | Stable |
| Cc1[nH]c2ccccc2c1C(Nc1ccc(N(C)C)cc1)c1ccccc1Cl (centres undefined) |  | Stable |
| Cc1[nH]c2ccccc2c1C(Nc1ccc([N+](=O)[O-])cc1)c1ccccc1Cl (centres undefined) |  | Stable |
| Cc1[nH]c2ccccc2c1C(Nc1ccc(C(F)(F)F)cc1)c1ccccc1Cl (centres undefined) |  | Stable |
| COc1ccccc1NC(c1ccccc1Cl)c1c(C)[nH]c2ccccc12 (centres undefined) |  | Stable |
| Cn1cc(C(Nc2ccccc2)c2ccccc2Cl)c2ccccc21 (centres undefined) |  | Stable |
| Clc1ccccc1C(Nc1ccccc1)c1c[nH]c2ccccc12 (centres undefined) |  | Stable |
| Cc1[nH]c2ccccc2c1C(Sc1ccccc1)c1ccccc1Cl (centres undefined) |  | Stable |
